Measurements: ChEMBL document CHEMBL4622922, “Discovery of novel potent GPR40 agonists containing imidazo[1,2-a]pyridine core as antidiabetic agents” (Bioorg Med Chem, 2020)

Legend:
[1] = biological target: Free fatty acid receptor 1 (Homo sapiens, UniProt O14842); assay: Agonist activity at GPR40 (unknown origin)
[2] = Hypoglycemic activity in normoglycemic ICR mouse assessed as blood glucose level at 30 mg/kg, po administered 30 mins prior to glucose challenge and measured at 1 hr post-compound administration by OGTT; assay type: ADME, organism-based; conditions: in vivo
[3] = Hepatotoxicity in HFD fed/STZ-treated diabetic C57BL/6 mouse model assessed as increase in ALT level in blood at 30 mg/kg, po administered for 4 weeks; assay type: toxicity, organism-based; conditions: in vivo, 672 h
[4] = Hepatotoxicity in HFD fed/STZ-treated diabetic C57BL/6 mouse model assessed as increase in AST level in blood at 30 mg/kg, po administered for 4 weeks; assay type: toxicity, organism-based; conditions: in vivo, 672 h
[5] = Tmax in Sprague-Dawley rat at 10 mg/kg, po by LC-MS/MS analysis; assay type: ADME, organism-based; conditions: in vivo
[6] = Cmax in Sprague-Dawley rat at 10 mg/kg, po by LC-MS/MS analysis; assay type: ADME, organism-based; set-up: dose 10 mg/kg, route oral; conditions: in vivo
[7] = Half life in Sprague-Dawley rat at 10 mg/kg, po by LC-MS/MS analysis; assay type: ADME, organism-based; conditions: in vivo
[8] = AUC (0 to 24 hrs) in Sprague-Dawley rat at 10 mg/kg, po by LC-MS/MS analysis; assay type: ADME, organism-based; set-up: time < 24 hr, dose 10 mg/kg, route oral; conditions: in vivo
[9] = Clearance in Sprague-Dawley rat at 10 mg/kg, po by LC-MS/MS analysis; assay type: ADME, organism-based; conditions: in vivo
[10] = tested on: Mus musculus; assay: Glucose lowering activity in po dosed normoglycemic ICR mouse assessed as suppression of blood glucose level administered for 30 mins followed by glucose challenge and measured upto 120 mins by OGTT; assay type: functional, organism-based
[11] = Hypoglycemic activity in normoglycemic ICR mouse at 90 mg/kg, po administered for 30 mins followed by glucose challenge and measured upto 120 mins by OGTT; assay type: ADME, organism-based; conditions: in vivo

Free fatty acid receptor 1, sequence (O14842 whole entry): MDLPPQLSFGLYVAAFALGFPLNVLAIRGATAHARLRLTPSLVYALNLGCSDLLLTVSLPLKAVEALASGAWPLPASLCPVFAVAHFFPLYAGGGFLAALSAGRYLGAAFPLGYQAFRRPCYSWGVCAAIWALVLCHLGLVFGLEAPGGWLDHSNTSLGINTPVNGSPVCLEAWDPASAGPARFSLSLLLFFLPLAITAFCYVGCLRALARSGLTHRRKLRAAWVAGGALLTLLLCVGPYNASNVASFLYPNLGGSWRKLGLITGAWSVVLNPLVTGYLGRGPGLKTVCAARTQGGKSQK

Row | SMILES | EC50 [1] [nM] | Activity [2] | Activity [3] | Activity [4] | further results
1 | CC#CC(CC(=O)O)c1ccc(OCc2ccn3cc(-c4ccccc4OCC)nc3c2)cc1 (configuration not stated) | 231 | Non-Toxic | – | – | –
2 | Cc1cc(OCCCS(C)(=O)=O)cc(C)c1-c1cccc(COc2ccc3c(c2)OC[C@H]3CC(=O)O)c1 | – | – | Toxic | Toxic | –

Further compounds by falling EC50 [1], results first:

Row | EC50 [1] [nM] | SMILES | Activity [2] | Activity [3] | Activity [4] | further results
3 | 507 | CC#CC(CC(=O)O)c1ccc(OCc2ccc3nc(-c4ccc(C)cc4)cn3c2)cc1 (configuration not stated) | – | – | – | –
4 | 316 | CC#CC(CC(=O)O)c1ccc(OCc2ccc3nc(-c4ccc(C)cc4C)cn3c2)cc1 (configuration not stated) | – | – | – | –
5 | 47 | CC#CC(CC(=O)O)c1ccc(OCc2ccc3nc(-c4ccc(OC)cc4)cn3c2)cc1 (configuration not stated) | Non-Toxic | Non-Toxic | Non-Toxic | Tmax [5]: 8.26 h; Cmax [6]: 16300 ng/mL; half-life [7]: 5.93 h; AUC(0-t) at 24 h [8]: 288 µg·h/mL; CL/F [9]: 0.454 mL/min/kg; Activity [10]: Dose-dependent effect; Activity [11]: Non-Toxic
